The record followed here is ChEMBL document CHEMBL1201862, “PubChem BioAssay data set” (2004).

Active and inactive are the calls of the source. Bounds are passed on as bounds.

Assay [1] deals with G-protein coupled receptor 55 (Homo sapiens, UniProt Q9Y2T6). The experiment in a line: inhibition of LPI-stimulated GPR55 beta-arrestin translocation – imaging, U2OS, beta-arrestin-GFP, LPI agonist, primary screen (AID 2013).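 Further: antagonist potency measured as reduced agonist-driven arrestin aggregation.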 The class given is functional.
Sequence of G-protein coupled receptor 55 (Q9Y2T6 whole entry): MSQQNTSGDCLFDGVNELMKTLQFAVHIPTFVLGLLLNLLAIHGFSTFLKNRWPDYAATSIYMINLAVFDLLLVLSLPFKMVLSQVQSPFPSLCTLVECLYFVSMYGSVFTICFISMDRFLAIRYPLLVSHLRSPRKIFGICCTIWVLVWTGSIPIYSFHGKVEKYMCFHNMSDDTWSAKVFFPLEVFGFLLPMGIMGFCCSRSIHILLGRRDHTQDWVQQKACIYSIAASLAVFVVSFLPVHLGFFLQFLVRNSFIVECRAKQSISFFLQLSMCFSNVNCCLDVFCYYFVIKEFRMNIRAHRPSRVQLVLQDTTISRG
The target of assay [2] is T1, RNA-binding protein pos-1 (Caenorhabditis elegans, UniProt G5EF15).
T1 sequence (G5EF15 whole entry): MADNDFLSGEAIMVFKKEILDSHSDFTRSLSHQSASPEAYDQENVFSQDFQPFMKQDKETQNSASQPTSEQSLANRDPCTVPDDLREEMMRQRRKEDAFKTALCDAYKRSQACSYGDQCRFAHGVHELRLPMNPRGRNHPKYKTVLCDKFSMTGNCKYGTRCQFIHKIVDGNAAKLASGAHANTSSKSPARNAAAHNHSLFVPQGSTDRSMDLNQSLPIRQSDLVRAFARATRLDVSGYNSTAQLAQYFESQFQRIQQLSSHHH
Nature of the assay: disruptors of C. elegans POS-1 RNA interaction – biochemical, fluorescence polarization, dose response (AID 1964).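 Further: purified POS-1 fused to maltose binding protein made in E. coli; potency of compounds blocking POS-1 binding to fluorescent RNA.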 A general note: Polarisation of emitted light reports the rotation of a fluorescent probe.

The nature of assay [3]: alpha-synuclein stem-loop luciferase translation blockers – H4 neuroglioma cells, luminescence, confirmation (AID 1988). The class given is functional, cell-based.
Assay [4] addresses Mothers against decapentaplegic homolog 3 (Homo sapiens, UniProt P84022). Nature of the assay: inhibitors of SMAD-driven TGF-beta signaling – dose response (AID 715). The class given is functional.
The target of assay [5] is Transitional endoplasmic reticulum ATPase (Homo sapiens, UniProt P55072). Nature of the assay: p97 ATPase inhibitors, dose response, biochemical (AID 1534).
Sequence of Transitional endoplasmic reticulum ATPase (P55072 whole entry): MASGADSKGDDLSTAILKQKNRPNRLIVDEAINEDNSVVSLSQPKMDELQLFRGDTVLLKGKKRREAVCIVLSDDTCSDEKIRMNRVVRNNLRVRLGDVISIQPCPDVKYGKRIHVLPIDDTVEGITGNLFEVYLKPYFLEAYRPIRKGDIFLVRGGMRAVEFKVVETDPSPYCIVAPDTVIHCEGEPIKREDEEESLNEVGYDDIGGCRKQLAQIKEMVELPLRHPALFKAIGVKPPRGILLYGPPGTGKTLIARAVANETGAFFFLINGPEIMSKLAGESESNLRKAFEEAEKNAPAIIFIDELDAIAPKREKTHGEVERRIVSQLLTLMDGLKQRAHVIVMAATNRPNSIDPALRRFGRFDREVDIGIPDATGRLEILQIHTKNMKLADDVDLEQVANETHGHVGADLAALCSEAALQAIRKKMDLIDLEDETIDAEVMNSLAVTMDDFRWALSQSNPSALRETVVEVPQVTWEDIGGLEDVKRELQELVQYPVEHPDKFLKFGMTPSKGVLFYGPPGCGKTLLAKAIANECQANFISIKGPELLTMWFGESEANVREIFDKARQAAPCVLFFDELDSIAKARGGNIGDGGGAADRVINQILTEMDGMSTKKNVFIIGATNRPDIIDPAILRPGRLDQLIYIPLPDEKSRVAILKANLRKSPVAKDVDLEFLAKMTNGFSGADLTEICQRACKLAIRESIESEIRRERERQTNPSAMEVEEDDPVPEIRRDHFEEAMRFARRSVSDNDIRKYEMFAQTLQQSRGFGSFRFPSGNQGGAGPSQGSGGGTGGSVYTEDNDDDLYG
The target of assay [6] is Peroxisome proliferator-activated receptor gamma/Nuclear receptor corepressor 2 (Homo sapiens, UniProt P37231+Q9Y618). The class given is functional.
Sequence of Peroxisome proliferator-activated receptor gamma/Nuclear receptor corepressor 2 (P37231 whole entry): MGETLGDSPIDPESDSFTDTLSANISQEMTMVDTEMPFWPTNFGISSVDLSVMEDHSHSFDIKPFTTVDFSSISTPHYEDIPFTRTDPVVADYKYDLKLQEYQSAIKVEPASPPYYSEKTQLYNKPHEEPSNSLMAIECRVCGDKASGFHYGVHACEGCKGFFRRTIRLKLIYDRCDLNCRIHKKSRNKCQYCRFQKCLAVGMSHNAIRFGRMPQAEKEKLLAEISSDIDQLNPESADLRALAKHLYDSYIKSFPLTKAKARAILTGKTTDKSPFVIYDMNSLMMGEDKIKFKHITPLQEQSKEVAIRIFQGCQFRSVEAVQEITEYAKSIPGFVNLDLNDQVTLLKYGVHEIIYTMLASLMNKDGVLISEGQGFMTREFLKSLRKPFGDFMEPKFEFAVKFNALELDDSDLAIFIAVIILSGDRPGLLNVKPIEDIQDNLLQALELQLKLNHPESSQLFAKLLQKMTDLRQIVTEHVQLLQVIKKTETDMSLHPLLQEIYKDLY
Sequence of Peroxisome proliferator-activated receptor gamma/Nuclear receptor corepressor 2 (Q9Y618 whole entry): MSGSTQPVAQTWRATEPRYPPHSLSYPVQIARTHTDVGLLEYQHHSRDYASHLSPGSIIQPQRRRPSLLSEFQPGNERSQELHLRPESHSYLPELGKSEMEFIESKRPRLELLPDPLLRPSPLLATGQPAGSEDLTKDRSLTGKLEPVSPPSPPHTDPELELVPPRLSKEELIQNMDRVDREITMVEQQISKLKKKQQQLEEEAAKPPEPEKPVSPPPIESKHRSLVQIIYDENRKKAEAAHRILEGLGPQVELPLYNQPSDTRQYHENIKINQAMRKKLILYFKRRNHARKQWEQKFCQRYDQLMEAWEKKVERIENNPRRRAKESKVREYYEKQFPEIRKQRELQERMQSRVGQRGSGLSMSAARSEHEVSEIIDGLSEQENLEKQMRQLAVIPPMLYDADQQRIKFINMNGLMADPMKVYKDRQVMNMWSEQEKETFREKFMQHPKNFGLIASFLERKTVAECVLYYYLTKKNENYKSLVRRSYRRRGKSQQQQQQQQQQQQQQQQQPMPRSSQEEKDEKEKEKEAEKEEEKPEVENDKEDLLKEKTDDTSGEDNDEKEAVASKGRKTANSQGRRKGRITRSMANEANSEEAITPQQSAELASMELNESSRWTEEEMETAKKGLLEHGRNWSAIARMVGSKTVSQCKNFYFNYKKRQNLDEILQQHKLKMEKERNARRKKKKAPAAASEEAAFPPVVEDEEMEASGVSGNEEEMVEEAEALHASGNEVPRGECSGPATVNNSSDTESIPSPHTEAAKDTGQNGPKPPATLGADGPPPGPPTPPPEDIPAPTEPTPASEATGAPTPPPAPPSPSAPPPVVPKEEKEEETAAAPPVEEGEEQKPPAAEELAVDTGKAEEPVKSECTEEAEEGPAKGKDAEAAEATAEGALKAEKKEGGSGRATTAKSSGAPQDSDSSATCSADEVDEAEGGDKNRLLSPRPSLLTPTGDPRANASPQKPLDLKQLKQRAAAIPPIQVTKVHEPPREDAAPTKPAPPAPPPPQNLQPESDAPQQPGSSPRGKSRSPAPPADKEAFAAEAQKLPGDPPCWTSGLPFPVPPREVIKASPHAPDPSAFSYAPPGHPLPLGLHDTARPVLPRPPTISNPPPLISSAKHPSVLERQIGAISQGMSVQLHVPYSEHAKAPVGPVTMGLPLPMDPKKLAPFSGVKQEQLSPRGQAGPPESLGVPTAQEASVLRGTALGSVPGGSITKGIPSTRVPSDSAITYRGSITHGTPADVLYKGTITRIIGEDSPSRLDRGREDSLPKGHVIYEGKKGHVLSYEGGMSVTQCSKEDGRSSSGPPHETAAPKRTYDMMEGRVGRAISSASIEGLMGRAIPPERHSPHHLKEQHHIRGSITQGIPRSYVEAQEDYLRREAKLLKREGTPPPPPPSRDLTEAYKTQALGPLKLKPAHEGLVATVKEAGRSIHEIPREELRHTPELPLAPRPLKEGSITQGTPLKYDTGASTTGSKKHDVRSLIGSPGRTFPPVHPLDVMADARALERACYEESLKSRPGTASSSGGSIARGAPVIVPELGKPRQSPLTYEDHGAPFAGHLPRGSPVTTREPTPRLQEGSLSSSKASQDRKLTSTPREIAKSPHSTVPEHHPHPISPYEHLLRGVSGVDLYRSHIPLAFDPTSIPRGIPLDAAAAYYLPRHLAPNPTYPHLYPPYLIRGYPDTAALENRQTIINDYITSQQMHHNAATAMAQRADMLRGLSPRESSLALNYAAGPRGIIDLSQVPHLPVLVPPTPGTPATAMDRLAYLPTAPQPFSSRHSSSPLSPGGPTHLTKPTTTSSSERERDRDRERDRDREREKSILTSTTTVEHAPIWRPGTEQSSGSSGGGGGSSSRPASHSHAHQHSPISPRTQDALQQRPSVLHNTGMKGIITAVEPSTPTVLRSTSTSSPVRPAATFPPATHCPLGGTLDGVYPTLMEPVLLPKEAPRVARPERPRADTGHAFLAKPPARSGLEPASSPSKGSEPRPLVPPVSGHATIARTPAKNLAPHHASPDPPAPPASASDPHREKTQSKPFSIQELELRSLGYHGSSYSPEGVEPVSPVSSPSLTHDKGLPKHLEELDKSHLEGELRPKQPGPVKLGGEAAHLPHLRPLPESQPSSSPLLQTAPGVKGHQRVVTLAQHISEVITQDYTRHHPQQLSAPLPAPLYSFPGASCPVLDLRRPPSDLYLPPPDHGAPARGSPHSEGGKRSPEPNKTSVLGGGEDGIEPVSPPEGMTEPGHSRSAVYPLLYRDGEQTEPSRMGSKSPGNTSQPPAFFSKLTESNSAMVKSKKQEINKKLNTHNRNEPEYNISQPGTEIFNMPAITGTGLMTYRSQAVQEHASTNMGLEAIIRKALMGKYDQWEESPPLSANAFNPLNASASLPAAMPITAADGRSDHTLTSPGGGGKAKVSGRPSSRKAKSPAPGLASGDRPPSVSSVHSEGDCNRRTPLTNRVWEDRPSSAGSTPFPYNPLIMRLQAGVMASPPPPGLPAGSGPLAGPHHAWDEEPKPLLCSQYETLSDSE
In assay [7] the target is Sphingosine 1-phosphate receptor 2 (Homo sapiens, UniProt O95136). Nature of the assay: Dose Response Cell Based Assay for Antagonists of the S1P2 Receptor. [Related pubchem assays: 856, 736 ]. The class given is functional.
Assay [8] has as its target Sphingosine 1-phosphate receptor 1 (Homo sapiens, UniProt P21453). The class given is functional.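 Further: Tango beta-arrestin reporter U2OS cells stimulated with S1P near its EC80; inhibitor potency meaning antagonism of receptor activation by the natural agonist.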
Assay [9] can be described thus: NIH3T3 cell viability loss – ATP luminescence, mouse fibroblasts, counter-screen, dose response (AID 2010).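 Further: cells exposed to compound for about 90 hours before reading.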 The class given is functional, cell-based.
Another assay deals with T2, Hexokinase-1 (Homo sapiens, UniProt P19367).
T2 sequence (P19367 whole entry): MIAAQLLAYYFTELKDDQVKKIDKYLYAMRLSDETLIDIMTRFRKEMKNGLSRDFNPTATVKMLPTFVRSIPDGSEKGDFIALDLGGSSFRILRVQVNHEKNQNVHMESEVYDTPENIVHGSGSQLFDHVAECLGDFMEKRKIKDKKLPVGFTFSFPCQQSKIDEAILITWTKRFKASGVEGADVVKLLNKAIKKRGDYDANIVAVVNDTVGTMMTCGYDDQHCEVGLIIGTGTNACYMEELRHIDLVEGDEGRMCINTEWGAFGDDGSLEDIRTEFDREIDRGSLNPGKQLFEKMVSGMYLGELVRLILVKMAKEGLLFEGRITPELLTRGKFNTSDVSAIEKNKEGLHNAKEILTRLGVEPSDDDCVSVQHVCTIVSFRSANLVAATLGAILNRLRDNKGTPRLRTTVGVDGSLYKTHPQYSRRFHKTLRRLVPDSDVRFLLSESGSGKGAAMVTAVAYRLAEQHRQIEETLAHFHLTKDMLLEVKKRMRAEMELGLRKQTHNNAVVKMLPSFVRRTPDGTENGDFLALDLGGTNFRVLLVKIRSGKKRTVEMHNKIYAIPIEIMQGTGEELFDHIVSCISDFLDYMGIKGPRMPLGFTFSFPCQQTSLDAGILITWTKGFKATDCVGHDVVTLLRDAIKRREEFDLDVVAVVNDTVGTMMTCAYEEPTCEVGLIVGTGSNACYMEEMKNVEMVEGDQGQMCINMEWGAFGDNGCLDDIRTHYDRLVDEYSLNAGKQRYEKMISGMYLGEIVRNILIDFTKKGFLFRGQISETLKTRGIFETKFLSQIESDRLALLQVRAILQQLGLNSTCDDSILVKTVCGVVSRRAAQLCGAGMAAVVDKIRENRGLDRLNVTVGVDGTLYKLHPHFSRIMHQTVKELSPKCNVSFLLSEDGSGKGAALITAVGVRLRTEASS
Nature of the assay: HK1 enzyme activation by HKDC1 hits – biochemical, selectivity assay for HKDC1 activator project, dose response (AID 504762). The class given is functional.

Assay [10] can be described thus: Trypanosoma cruzi growth suppression in host cells – NIH3T3 host cells, beta-gal luminescence, confirmation (AID 2044).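 Further: intracellular parasites grown in NIH/3T3 mouse fibroblasts as host cells; luminescent beta-galactosidase reporter signal from transgenic T. cruzi replicating inside host cells; inhibitors lower the luminescence signal.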 The class given is functional, cell-based.
Assay [11] deals with Heat shock protein HSP 90-alpha (Homo sapiens, UniProt P07900). The class given is functional, organism-based.
For assay [12], the target named is T3, Mitochondrial peptide methionine sulfoxide reductase (Bos taurus, UniProt P54149).
T3 sequence (P54149 whole entry): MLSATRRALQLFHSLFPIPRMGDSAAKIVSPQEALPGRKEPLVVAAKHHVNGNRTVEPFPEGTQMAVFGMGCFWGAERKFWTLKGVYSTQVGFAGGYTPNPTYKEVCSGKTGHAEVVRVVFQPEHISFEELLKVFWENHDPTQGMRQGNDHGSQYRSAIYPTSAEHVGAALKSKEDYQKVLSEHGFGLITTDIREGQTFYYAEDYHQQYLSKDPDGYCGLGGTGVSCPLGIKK
Nature of the assay: Absorbance-based biochemical high throughput dose response assay for activators of Methionine sulfoxide reductase A (MsrA). The class given is functional.

Assay [13] concerns the target T4, Sentrin-specific protease 8 (Homo sapiens, UniProt Q96LD8).
T4 sequence (Q96LD8 whole entry): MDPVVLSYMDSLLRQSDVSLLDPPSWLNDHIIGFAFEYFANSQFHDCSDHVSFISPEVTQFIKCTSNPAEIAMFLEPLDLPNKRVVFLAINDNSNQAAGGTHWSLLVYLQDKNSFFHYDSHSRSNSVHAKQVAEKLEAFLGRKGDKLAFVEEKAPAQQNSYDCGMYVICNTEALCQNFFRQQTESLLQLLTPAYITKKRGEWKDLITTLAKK
Nature of the assay: inhibition of human SENP8 cleavage activity – biochemical, luminescence, SAR follow-up (AID 504501). The class given is functional.

A short description of assay [14]: cells. The class given is functional, cell-based.
A short description of assay [15]: NIH-3T3 fibroblast cytotoxicity, dose response, cytotoxicity control, cell-based, fluorescence, Alamar Blue, secondary assay (AID 2327).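 Further: NIH-3T3 mouse fibroblasts cultured with fluconazole at 8 µg/mL.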 The class given is functional.
The nature of assay [16]: non-specific 3'UTR reporter inhibition in Clone20-Shn3RL – cell-based, Renilla luciferase, cherry-picked, counter-screen for Shn3 inhibitor project, dose response (AID 624133). The class given is functional.
The target in assay [17] is Serine/threonine-protein phosphatase (Candida dubliniensis (strain CD36 / CBS 7987 / NCPF 3949 / NRRLY-17841) (Yeast), UniProt B9W6M3). Nature of the assay: blockers of CaCl2-induced CDRE-lacZ signaling – S. cerevisiae, luminescence, secondary, dose response (AID 2388).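 Further: yeast reporter cells carrying a calcineurin-responsive lacZ construct stimulated with calcium chloride; luminescent beta-galactosidase reporter signal in whole cells rather than isolated phosphatase activity; potency for inhibition where a drop in reporter signal means calcineurin blockade.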 The class given is functional, cell-based.
Assay [18] in a line: cells. The class given is functional, cell-based. The source holds these as a separate data set.
The subject of a further assay is HEK293. Nature of the assay: HEK293T cell viability loss, resazurin readout – resazurin fluorescence, cytotoxicity control for NF-kB activator project, SAR follow-up (AID 493251). The class given is functional, cell-based. The settings on record: Homo sapiens. For orientation: The colour change of resazurin is a common sign of viable cells or microbes.
Assay [19] in a line: Vero E6 cell cytotoxicity, dose response, cytotoxicity control for non-replicating M. tuberculosis project, secondary assay (AID 492998). The settings on record: Vero C1008. The class given is functional, VeroE6.

Sequence of Mothers against decapentaplegic homolog 3 (P84022 whole entry): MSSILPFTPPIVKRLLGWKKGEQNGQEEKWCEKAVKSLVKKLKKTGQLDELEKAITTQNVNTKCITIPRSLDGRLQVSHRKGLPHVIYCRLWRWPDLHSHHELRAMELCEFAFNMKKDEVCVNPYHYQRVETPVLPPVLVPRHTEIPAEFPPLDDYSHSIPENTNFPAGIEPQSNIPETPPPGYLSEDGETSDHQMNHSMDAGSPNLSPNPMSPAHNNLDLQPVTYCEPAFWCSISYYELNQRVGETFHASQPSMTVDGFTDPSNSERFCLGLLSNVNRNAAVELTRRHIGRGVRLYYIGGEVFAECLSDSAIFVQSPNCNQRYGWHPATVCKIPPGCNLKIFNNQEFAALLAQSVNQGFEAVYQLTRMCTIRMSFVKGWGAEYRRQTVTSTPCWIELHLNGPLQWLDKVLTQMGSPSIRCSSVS
Sequence of Sphingosine 1-phosphate receptor 1 (P21453 whole entry): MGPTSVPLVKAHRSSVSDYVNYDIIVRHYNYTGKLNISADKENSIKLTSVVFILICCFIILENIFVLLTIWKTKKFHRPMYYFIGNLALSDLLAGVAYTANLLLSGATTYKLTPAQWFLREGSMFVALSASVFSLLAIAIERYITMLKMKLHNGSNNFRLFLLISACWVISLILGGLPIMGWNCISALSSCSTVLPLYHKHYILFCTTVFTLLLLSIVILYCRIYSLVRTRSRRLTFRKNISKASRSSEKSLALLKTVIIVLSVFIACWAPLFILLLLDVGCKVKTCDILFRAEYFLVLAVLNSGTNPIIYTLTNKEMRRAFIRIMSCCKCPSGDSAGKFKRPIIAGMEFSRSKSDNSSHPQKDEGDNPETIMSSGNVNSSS

As to `Cn1nc(-c2ccc(Cl)cc2)nc2c(=O)n(C)c(=O)nc1-2`, the IC50 (in general, the concentration at which inhibition is half-maximal) is 7.35 µM (active) in assay [1]; 0.039 µM (active) in [4]; > 50 µM (not active) in assay [5]; > 4.43 µM (active) in [6]; 0.996 µM (active) in assay [7]; 2.34 µM (active) in assay [8]. Moreover, the EC50 (as a rule, the concentration giving half of the maximal effect) was 17.6 µM (active) in [2] and 4.07 µM (active) in assay [3].
Take `SC1=Nc2ccccc2C1`: the concentration for a half-maximal effect (EC50) in [9] was 15.8 µM (active); on Hexokinase-1, 19.3 µM (active); in assay [10], 0.487 µM (active). Also, in assay [11], the AC50 (in general, the midpoint of the concentration-response curve, whichever way the signal moves) was 3.88 µM (active).
With `NS(=O)(=O)c1ccc(NC(=O)COC(=O)c2ccc([N+](=O)[O-])s2)cc1`, the EC50 in [12] was > 104 µM (inactive).
In the case of `CCCCNc1cc(NC(C)=O)cc2cc(OC)c(OC)cc12`, the IC50 in assay [13] is > 99 µM (inactive).
For the molecule `COc1ccc(C(NC(=O)C(C)C)c2ccc3cccnc3c2O)cc1` (stereo unspecified), the EC50 in “cells [14]” was 5.77 µM (active); in assay [15], 40.1 µM (active); in [17], > 180 µM (inactive); in the assay “cells [18]”, > 350 µM (not active). In assay [16], the AC50 was 2.27 µM (active). The IC50 with HEK293 is 41.3 µM (inactive).
With `O=C(Cc1ccc([N+](=O)[O-])cc1)N/N=C/c1ccc([N+](=O)[O-])o1`, in assay [19], the CC50 (usually the concentration giving 50% cytotoxicity) was > 20 µM (active).
